Test results published in PMC5218480 (PLoS ONE, 2017).

Test system: MV-4-11 cells
Test: Gene expression microarray analysis (Affymetrix PrimeView) and GSEA
Type: cell-based, human
Parameters: RFU PODN (11730768_x_at) / Fold change /veh PODN (11730768_x_at) / RFU LINC00158 (11744669_a_at) / Fold change /veh LINC00158 (11744669_a_at) / RFU DUSP10 (11751237_a_at) / Fold change /veh DUSP10 (11751237_a_at) / RFU ID3 (11757404_x_at) / Fold change /veh ID3 (11757404_x_at) / RFU PLEKHG5 (11737974_s_at) / Fold change /veh PLEKHG5 (11737974_s_at) / RFU LRRC4B (11730491_at) / Fold change /veh LRRC4B (11730491_at) / RFU GIMAP4 (11747438_a_at) / Fold change /veh GIMAP4 (11747438_a_at) / RFU KRT8 (11758183_x_at) / Fold change /veh KRT8 (11758183_x_at) / RFU CNN1 (11734310_a_at) / Fold change /veh CNN1 (11734310_a_at) / RFU VPS37D (11726825_at) / Fold change /veh VPS37D (11726825_at) / RFU C10orf10 (11716522_x_at) / Fold change /veh C10orf10 (11716522_x_at) / RFU KIR2DL2 /// KIR2DL4 /// KIR2DL5A /// KIR2DL5B /// KIR2DS1 /// KIR2DS2 /// KIR2DS3 /// KIR2DS4 /// KIR3DL3 /// KIR3DL3 /// KIR3DS1 (11738374_at) / Fold change /veh KIR2DL2 /// KIR2DL4 /// KIR2DL5A /// KIR2DL5B /// KIR2DS1 /// KIR2DS2 /// KIR2DS3 /// KIR2DS4 /// KIR3DL3 /// KIR3DL3 /// KIR3DS1 (11738374_at) / RFU C1QL1 (11718748_at) / Fold change /veh C1QL1 (11718748_at) / RFU TMPRSS4 (11747572_a_at) / Fold change /veh TMPRSS4 (11747572_a_at) / RFU HAMP (11756126_x_at) / Fold change /veh HAMP (11756126_x_at) / RFU RNFT2 (11725882_a_at) / Fold change /veh RNFT2 (11725882_a_at) / RFU NR4A2 (11747474_a_at) / Fold change /veh NR4A2 (11747474_a_at) / RFU ABCC12 (11746883_a_at) / Fold change /veh ABCC12 (11746883_a_at) / RFU TMEM136 (11760407_x_at) / Fold change /veh TMEM136 (11760407_x_at) / RFU CLDN22 /// WWC2 (11732394_at) / Fold change /veh CLDN22 /// WWC2 (11732394_at) / RFU HLA-DPB1 (11760878_x_at) / Fold change /veh HLA-DPB1 (11760878_x_at) / RFU SPINT1 (11716480_a_at) / Fold change /veh SPINT1 (11716480_a_at) / RFU GAP43 (11754022_s_at) / Fold change /veh GAP43 (11754022_s_at) / RFU A4GNT (11735810_at) / Fold change /veh A4GNT (11735810_at) / RFU PRB3 (11715151_x_at) / Fold change /veh PRB3 (11715151_x_at) / RFU TUBB4B (11761932_at) / Fold change /veh TUBB4B (11761932_at) / RFU CAPN14 (11732068_a_at) / Fold change /veh CAPN14 (11732068_a_at) / RFU TMCC2 (11721928_a_at) / Fold change /veh TMCC2 (11721928_a_at) / RFU IRGQ (11745062_a_at) / Fold change /veh IRGQ (11745062_a_at) / RFU FAM174B (11720279_a_at) / Fold change /veh FAM174B (11720279_a_at) / RFU TMPRSS4 (11748680_a_at) / Fold change /veh TMPRSS4 (11748680_a_at) / RFU FAM212B (11763350_a_at) / Fold change /veh FAM212B (11763350_a_at) / RFU PLEKHG5 (11743358_a_at) / Fold change /veh PLEKHG5 (11743358_a_at) / RFU ZSCAN30 (11745921_a_at) / Fold change /veh ZSCAN30 (11745921_a_at) / RFU CMKLR1 (11741424_a_at) / Fold change /veh CMKLR1 (11741424_a_at) / RFU LOC101060620 /// MAPK8IP1 (11723275_at) / Fold change /veh LOC101060620 /// MAPK8IP1 (11723275_at) / RFU SPTSSB (11747773_x_at) / Fold change /veh SPTSSB (11747773_x_at) / RFU PRSS12 (11739890_at) / Fold change /veh PRSS12 (11739890_at) / RFU BIN1 (11741810_x_at) / Fold change /veh BIN1 (11741810_x_at) / RFU WNT11 (11732464_a_at) / Fold change /veh WNT11 (11732464_a_at) / RFU C10orf10 (11716521_a_at) / Fold change /veh C10orf10 (11716521_a_at) / RFU C5orf56 (11738089_at) / Fold change /veh C5orf56 (11738089_at) / RFU CYB561 (11721691_x_at) / Fold change /veh CYB561 (11721691_x_at) / RFU ANKRD19P (11752326_a_at) / Fold change /veh ANKRD19P (11752326_a_at) / RFU OR2T12 /// OR2T33 /// OR2T8 (11738714_s_at) / Fold change /veh OR2T12 /// OR2T33 /// OR2T8 (11738714_s_at) / RFU VCAN (11748164_a_at) / Fold change /veh VCAN (11748164_a_at) / RFU JSRP1 (11732532_at) / Fold change /veh JSRP1 (11732532_at) / RFU KRTAP10-11 (11738290_x_at) / Fold change /veh KRTAP10-11 (11738290_x_at) / RFU MYO3A (11730013_a_at) / Fold change /veh MYO3A (11730013_a_at) / RFU EBF3 (11725865_a_at) / Fold change /veh EBF3 (11725865_a_at) / RFU CAMK2N1 (11719241_x_at) / Fold change /veh CAMK2N1 (11719241_x_at) / RFU C5orf56 (11738088_a_at) / Fold change /veh C5orf56 (11738088_a_at) / RFU OLFML3 (11715873_a_at) / Fold change /veh OLFML3 (11715873_a_at) / RFU LOC100653217 /// NTM (11731650_a_at) / Fold change /veh LOC100653217 /// NTM (11731650_a_at) / RFU MAPK11 (11762145_a_at) / Fold change /veh MAPK11 (11762145_a_at) / RFU FIZ1 (11724087_x_at) / Fold change /veh FIZ1 (11724087_x_at) / RFU OASL (11726364_x_at) / Fold change /veh OASL (11726364_x_at) / RFU SOX15 (11748057_x_at) / Fold change /veh SOX15 (11748057_x_at) / RFU CD79A (11719716_a_at) / Fold change /veh CD79A (11719716_a_at) / RFU HIST1H1D (11736915_at) / Fold change /veh HIST1H1D (11736915_at) / RFU CASKIN2 (11723855_a_at) / Fold change /veh CASKIN2 (11723855_a_at) / RFU LOC730098 (11760151_x_at) / Fold change /veh LOC730098 (11760151_x_at) / RFU OR4N2 (11742367_at) / Fold change /veh OR4N2 (11742367_at) / RFU PRRT2 (11749266_a_at) / Fold change /veh PRRT2 (11749266_a_at) / RFU SNX32 (11753110_a_at) / Fold change /veh SNX32 (11753110_a_at) / RFU CDHR5 (11726645_a_at) / Fold change /veh CDHR5 (11726645_a_at) / RFU RCAN1 (11760418_a_at) / Fold change /veh RCAN1 (11760418_a_at) / RFU FAM167A (11723789_a_at) / Fold change /veh FAM167A (11723789_a_at) / RFU FAM26E (11764081_at) / Fold change /veh FAM26E (11764081_at) / RFU ISYNA1 (11749810_s_at) / Fold change /veh ISYNA1 (11749810_s_at) / RFU ACY1 (11761880_at) / Fold change /veh ACY1 (11761880_at) / RFU 11764098_at / Fold change /veh 11764098_at / RFU SAMD14 (11745864_x_at) / Fold change /veh SAMD14 (11745864_x_at) / RFU NPB (11741838_a_at) / Fold change /veh NPB (11741838_a_at) / RFU TMPRSS6 (11731388_a_at) / Fold change /veh TMPRSS6 (11731388_a_at) / RFU KRTAP10-2 (11738614_at) / Fold change /veh KRTAP10-2 (11738614_at) / RFU ARHGAP8 /// PRR5-ARHGAP8 (11727945_x_at) / Fold change /veh ARHGAP8 /// PRR5-ARHGAP8 (11727945_x_at) / RFU KRTAP5-7 /// NADSYN1 (11734609_at) / Fold change /veh KRTAP5-7 /// NADSYN1 (11734609_at) / RFU RASL12 (11751679_a_at) / Fold change /veh RASL12 (11751679_a_at) / RFU CDKN2B (11736163_a_at) / Fold change /veh CDKN2B (11736163_a_at) / RFU PRF1 (11729649_at) / Fold change /veh PRF1 (11729649_at) / RFU, ZNF638 /// ZNF638-IT1 / Fold change vs veh, ZNF638 /// ZNF638-IT1 / RFU, PANK3 / Fold change vs veh, PANK3 / RFU, SH3YL1 / Fold change vs veh, SH3YL1 / RFU, ZEB2 / Fold change vs veh, ZEB2 / RFU, NRIP1 / Fold change vs veh, NRIP1 / RFU, PTTG1IP / Fold change vs veh, PTTG1IP / RFU, CAPN2 / Fold change vs veh, CAPN2 / RFU, MED14 / Fold change vs veh, MED14 / RFU, SNORA58 / Fold change vs veh, SNORA58 / RFU, C1orf63 / Fold change vs veh, C1orf63 / RFU, LRRFIP1 / Fold change vs veh, LRRFIP1 / RFU, NDUFAF7 / Fold change vs veh, NDUFAF7 / RFU, SLC12A2 / Fold change vs veh, SLC12A2 / RFU, IBTK / Fold change vs veh, IBTK / RFU, ESF1 / Fold change vs veh, ESF1 / Fold change vs veh, TMEM50B / RFU, TAOK1 / Fold change vs veh, TAOK1 / RFU, ACBD3 / Fold change vs veh, ACBD3 / RFU, TMA16 / Fold change vs veh, TMA16 / RFU, RWDD3 / Fold change vs veh, RWDD3 / RFU, BCAT1 / Fold change vs veh, BCAT1 / RFU, EDEM3 / Fold change vs veh, EDEM3 / RFU, TMEM33 / Fold change vs veh, TMEM33 / RFU, WDR75 / Fold change vs veh, WDR75 / RFU, AHCTF1 / Fold change vs veh, AHCTF1 / RFU, TFRC / Fold change vs veh, TFRC / RFU, ZDHHC17 / Fold change vs veh, ZDHHC17 / RFU, NOM1 / Fold change vs veh, NOM1 / RFU, ARL8B / Fold change vs veh, ARL8B / RFU, ZBTB11 / Fold change vs veh, ZBTB11 / RFU, TAMM41 / Fold change vs veh, TAMM41 / RFU, KIAA1704 /// LOC100996395 / Fold change vs veh, KIAA1704 /// LOC100996395 / RFU, ING1 / Fold change vs veh, ING1 / RFU, TRMT61B / Fold change vs veh, TRMT61B / RFU, FUBP3 / Fold change vs veh, FUBP3 / RFU, TP53 / Fold change vs veh, TP53 / RFU, TNKS2 / Fold change vs veh, TNKS2 / RFU, ZFP14 / Fold change vs veh, ZFP14 / RFU, ACTR2 / Fold change vs veh, ACTR2 / RFU, PPP3R1 / Fold change vs veh, PPP3R1 / RFU, PIK3R1 / Fold change vs veh, PIK3R1 / RFU, HNRNPA1 / Fold change vs veh, HNRNPA1 / RFU, RNF170 / Fold change vs veh, RNF170 / RFU, ZNF28 / Fold change vs veh, ZNF28 / RFU, RNGTT / Fold change vs veh, RNGTT / RFU, OGT / Fold change vs veh, OGT / RFU, BRD1 / Fold change vs veh, BRD1 / RFU, MARS / Fold change vs veh, MARS / RFU, ZNF655 / Fold change vs veh, ZNF655 / RFU, FAHD1 / Fold change vs veh, FAHD1 / RFU, BDP1 / Fold change vs veh, BDP1 / RFU, LRRCC1 / Fold change vs veh, LRRCC1 / RFU, ARID1A / Fold change vs veh, ARID1A / RFU, ZNF146 / Fold change vs veh, ZNF146 / RFU, ZNF330 / Fold change vs veh, ZNF330 / RFU, GPN3 / Fold change vs veh, GPN3 / RFU, C9orf123 / Fold change vs veh, C9orf123 / RFU, N4BP2L2 / Fold change vs veh, N4BP2L2 / RFU, ARFIP1 / Fold change vs veh, ARFIP1 / RFU, FAM179B / Fold change vs veh, FAM179B / RFU, BCL10 / Fold change vs veh, BCL10 / RFU, UHRF1BP1L / Fold change vs veh, UHRF1BP1L / RFU, BET1 / Fold change vs veh, BET1 / RFU, CNOT2 / Fold change vs veh, CNOT2 / RFU, ZNF268 / Fold change vs veh, ZNF268 / Fold change vs veh, ZNF507 / RFU, DGCR2 / Fold change vs veh, DGCR2 / RFU, WDSUB1 / Fold change vs veh, WDSUB1 / Fold change vs veh, HSP90B1 /// MIR3652 / RFU, ADSS / Fold change vs veh, ADSS / RFU, GK / Fold change vs veh, GK / RFU, ZNF148 / Fold change vs veh, ZNF148 / RFU, TAF9 / Fold change vs veh, TAF9 / RFU, SLC1A5 / Fold change vs veh, SLC1A5 / RFU, SLMO2 / Fold change vs veh, SLMO2 / RFU, ABCC4 / Fold change vs veh, ABCC4 / RFU, LOC101060439 /// RAP1B / Fold change vs veh, LOC101060439 /// RAP1B / RFU, RFX7 / Fold change vs veh, RFX7 / RFU, GTPBP10 / Fold change vs veh, GTPBP10 / RFU, CNEP1R1 / Fold change vs veh, CNEP1R1 / RFU, BIVM-ERCC5 /// ERCC5 / Fold change vs veh, BIVM-ERCC5 /// ERCC5 / RFU, ILF3 / Fold change vs veh, ILF3 / RFU 11762660_at / Fold change /veh 11762660_at / RFU VCAN (11757783_s_at) / Fold change /veh VCAN (11757783_s_at) / RFU DDX43 (11728927_at) / Fold change /veh DDX43 (11728927_at) / RFU KRT8 (11758188_x_at) / Fold change /veh KRT8 (11758188_x_at) / RFU NKD1 (11759106_at) / Fold change /veh NKD1 (11759106_at) / RFU SRD5A1 (11742802_a_at) / Fold change /veh SRD5A1 (11742802_a_at) / RFU TPSAB1 /// TPSB2 (11721975_s_at) / Fold change /veh TPSAB1 /// TPSB2 (11721975_s_at) / RFU GSTM3 (11746129_a_at) / Fold change /veh GSTM3 (11746129_a_at) / RFU IL23R (11737362_x_at) / Fold change /veh IL23R (11737362_x_at) / RFU TMEM51 (11727254_a_at) / Fold change /veh TMEM51 (11727254_a_at) / RFU PIWIL2 (11732686_x_at) / Fold change /veh PIWIL2 (11732686_x_at) / RFU ORM1 (11744905_x_at) / Fold change /veh ORM1 (11744905_x_at) / RFU CCDC152 (11743942_at) / Fold change /veh CCDC152 (11743942_at) / RFU ECM1 (11717891_a_at) / Fold change /veh ECM1 (11717891_a_at) / RFU IL23R (11748794_a_at) / Fold change /veh IL23R (11748794_a_at) / RFU TNFAIP8L3 (11732012_x_at) / Fold change /veh TNFAIP8L3 (11732012_x_at) / RFU MBOAT4 (11741988_at) / Fold change /veh MBOAT4 (11741988_at) / RFU 11764193_at / Fold change /veh 11764193_at / RFU TMEM53 (11763286_at) / Fold change /veh TMEM53 (11763286_at) / RFU MAGEB2 (11727129_at) / Fold change /veh MAGEB2 (11727129_at) / RFU TMEM200A (11744735_a_at) / Fold change /veh TMEM200A (11744735_a_at) / RFU CCDC152 (11751479_a_at) / Fold change /veh CCDC152 (11751479_a_at) / RFU FAM211A (11726209_a_at) / Fold change /veh FAM211A (11726209_a_at) / RFU RGS16 (11746705_a_at) / Fold change /veh RGS16 (11746705_a_at) / RFU VCAN (11755009_s_at) / Fold change /veh VCAN (11755009_s_at) / RFU RHOB (11743442_s_at) / Fold change /veh RHOB (11743442_s_at) / RFU RGS16 (11720943_a_at) / Fold change /veh RGS16 (11720943_a_at) / RFU RGS16 (11720944_at) / Fold change /veh RGS16 (11720944_at) / RFU, VPS4B / Fold change vs veh, VPS4B / RFU, CREB1 / Fold change vs veh, CREB1 / RFU, DNAJC13 / Fold change vs veh, DNAJC13 / RFU, GNAQ / Fold change vs veh, GNAQ / RFU, CDK5R1 / Fold change vs veh, CDK5R1 / RFU, ZRANB3 / Fold change vs veh, ZRANB3 / RFU, CUL4A / Fold change vs veh, CUL4A / RFU, CCNY / Fold change vs veh, CCNY / RFU, UFL1 / Fold change vs veh, UFL1 / RFU, COG3 / Fold change vs veh, COG3 / RFU, DIAPH2 / Fold change vs veh, DIAPH2 / RFU, SKA2 / Fold change vs veh, SKA2 / RFU, AFF3 / Fold change vs veh, AFF3 / RFU, LMF1 / Fold change vs veh, LMF1 / RFU, IPO11 / Fold change vs veh, IPO11 / RFU, DFFB / Fold change vs veh, DFFB / RFU, FOXP1 / Fold change vs veh, FOXP1 / RFU, CARD8 / Fold change vs veh, CARD8 / RFU, STRN3 / Fold change vs veh, STRN3 / RFU, ADK / Fold change vs veh, ADK / RFU, RASSF2 / Fold change vs veh, RASSF2 / RFU, WIPF1 / Fold change vs veh, WIPF1 / RFU, LARP1B / Fold change vs veh, LARP1B / RFU, RASA1 / Fold change vs veh, RASA1 / RFU, RB1 / Fold change vs veh, RB1 / RFU, PPFIA1 / Fold change vs veh, PPFIA1 / RFU, MAT2A / Fold change vs veh, MAT2A / RFU, CCT5 / Fold change vs veh, CCT5 / RFU, WDR92 / Fold change vs veh, WDR92 / RFU, CUX1 / Fold change vs veh, CUX1 / RFU, TTC7A / Fold change vs veh, TTC7A / RFU, TMEM135 / Fold change vs veh, TMEM135 / RFU, DEPTOR / Fold change vs veh, DEPTOR / RFU, CPM / Fold change vs veh, CPM / RFU, DNAJB6 / Fold change vs veh, DNAJB6 / RFU, CACNA2D3 / Fold change vs veh, CACNA2D3 / RFU, DTX4 / Fold change vs veh, DTX4 / RFU, TFCP2 / Fold change vs veh, TFCP2 / RFU, GMCL1 /// GMCL1P1 / Fold change vs veh, GMCL1 /// GMCL1P1 / RFU, AEBP2 / Fold change vs veh, AEBP2 / RFU, SNHG1 /// SNORD22 /// SNORD25 /// SNORD26 /// SNORD27 /// SNORD28 /// SNORD29 /// SNORD31 / Fold change vs veh, SNHG1 /// SNORD22 /// SNORD25 /// SNORD26 /// SNORD27 /// SNORD28 /// SNORD29 /// SNORD31 / Fold change (Aza/veh), C12orf56 (ProbeSet 11735607_a_at) / Fold change (ACY-1035/veh), C12orf56 (ProbeSet 11735607_a_at) / Fold change (Aza/veh), FGFR1OP (ProbeSet 11751329_s_at) / Fold change (ACY-1035/veh), FGFR1OP (ProbeSet 11751329_s_at) / Fold change (Aza/veh), VPS36 (ProbeSet 11739960_a_at) / Fold change (ACY-1035/veh), VPS36 (ProbeSet 11739960_a_at) / RFU SYPL1 (11715823_x_at) / Fold change /veh SYPL1 (11715823_x_at) / RFU IGFBP7 (11715501_s_at) / Fold change /veh IGFBP7 (11715501_s_at) / RFU REEP3 (11722064_at) / Fold change /veh REEP3 (11722064_at) / RFU IGLL1 (11728026_x_at) / Fold change /veh IGLL1 (11728026_x_at): dose or concentration left out as unconfirmed
Settings: ProbeSet 11721521_at; LIST B

Compound: Nc1ccc(-c2cccs2)cc1NC(=O)c1ccc2c(c1)cc(C1CC1)n2CCN1CCOCC1 [ACY-1035]
- Fold change vs veh, ZDHHC17: 0.90
